Common to all, as to assay type: biochemical
The target in one assay is EGFR (Homo sapiens, UniProt P00533). Nature of the assay: Inhibition of a panel of kinases, in vitro HotSpot kinase assay: EGFR. Here is the method:
(§1) The degree of inhibition of a panel of kinases is determined using the in vitro HotSpot kinase assay (purified enzymes, ^33P-ATP, an appropriate substrate and 1 uM ATP).

The target of another assay is T1, JAK3 (Homo sapiens, UniProt P52333).
T1 sequence (P52333 1-1124): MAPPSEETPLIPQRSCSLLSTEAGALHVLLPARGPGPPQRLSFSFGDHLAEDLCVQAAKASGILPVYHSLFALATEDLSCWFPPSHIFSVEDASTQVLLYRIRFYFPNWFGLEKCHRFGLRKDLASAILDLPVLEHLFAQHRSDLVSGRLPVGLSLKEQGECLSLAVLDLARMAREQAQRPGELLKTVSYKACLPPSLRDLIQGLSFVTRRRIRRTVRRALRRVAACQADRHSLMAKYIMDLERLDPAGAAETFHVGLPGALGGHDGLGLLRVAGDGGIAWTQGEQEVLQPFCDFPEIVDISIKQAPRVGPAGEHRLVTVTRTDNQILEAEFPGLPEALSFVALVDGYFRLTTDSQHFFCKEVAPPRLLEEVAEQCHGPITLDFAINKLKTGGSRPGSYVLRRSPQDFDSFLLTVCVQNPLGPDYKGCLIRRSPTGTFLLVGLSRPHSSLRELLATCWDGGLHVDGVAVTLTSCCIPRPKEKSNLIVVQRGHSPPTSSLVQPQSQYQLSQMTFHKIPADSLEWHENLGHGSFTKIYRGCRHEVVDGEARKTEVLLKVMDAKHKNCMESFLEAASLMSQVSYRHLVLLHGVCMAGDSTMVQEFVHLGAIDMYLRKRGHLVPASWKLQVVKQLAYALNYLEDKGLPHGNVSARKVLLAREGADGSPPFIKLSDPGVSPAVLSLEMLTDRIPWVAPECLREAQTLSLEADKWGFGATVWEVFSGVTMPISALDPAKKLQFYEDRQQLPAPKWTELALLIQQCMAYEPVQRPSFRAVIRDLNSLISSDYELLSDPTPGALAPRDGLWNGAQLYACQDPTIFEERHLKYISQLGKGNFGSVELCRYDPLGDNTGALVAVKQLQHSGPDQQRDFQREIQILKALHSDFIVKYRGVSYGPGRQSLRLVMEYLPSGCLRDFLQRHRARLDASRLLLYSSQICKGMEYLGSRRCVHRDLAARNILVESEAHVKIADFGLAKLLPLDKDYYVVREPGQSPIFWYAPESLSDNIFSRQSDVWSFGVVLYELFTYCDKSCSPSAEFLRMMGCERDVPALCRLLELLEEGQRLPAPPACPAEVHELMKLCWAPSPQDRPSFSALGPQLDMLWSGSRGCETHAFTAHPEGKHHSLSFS
Nature of the assay: Inhibition of a panel of kinases, in vitro HotSpot kinase assay: JAK3. Here is the method:
as §1

The target in a further assay is Btk (Homo sapiens, UniProt Q06187). Nature of the assay: Btk kinase activity, TR-FRET assay. Particulars: read-out: Btk (IC50). Summed up: (§2)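 Enzyme (Btk 0.5 nM; Lck 6 nM) reacted 1 h with inhibitor, ATP at Km and biotin-peptide substrate in pH 7.4 buffer, 10% DMSO. Phosphopeptide detected by Eu-p-Tyr100 antibody plus streptavidin-APC (665/615 nm). IC50 calculated from fitted Ki(app) via ATP/Km correction plus half total enzyme.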

The next assay has as its target Lck (Homo sapiens, UniProt P06239). Nature of the assay: Lck kinase activity, TR-FRET assay. Particulars: read-out: LCK (IC50). In short, it runs like this:
as §2
For orientation: In TR-FRET formats the signal depends on donor and acceptor labels being close together.

Btk, sequence (Q06187 whole entry): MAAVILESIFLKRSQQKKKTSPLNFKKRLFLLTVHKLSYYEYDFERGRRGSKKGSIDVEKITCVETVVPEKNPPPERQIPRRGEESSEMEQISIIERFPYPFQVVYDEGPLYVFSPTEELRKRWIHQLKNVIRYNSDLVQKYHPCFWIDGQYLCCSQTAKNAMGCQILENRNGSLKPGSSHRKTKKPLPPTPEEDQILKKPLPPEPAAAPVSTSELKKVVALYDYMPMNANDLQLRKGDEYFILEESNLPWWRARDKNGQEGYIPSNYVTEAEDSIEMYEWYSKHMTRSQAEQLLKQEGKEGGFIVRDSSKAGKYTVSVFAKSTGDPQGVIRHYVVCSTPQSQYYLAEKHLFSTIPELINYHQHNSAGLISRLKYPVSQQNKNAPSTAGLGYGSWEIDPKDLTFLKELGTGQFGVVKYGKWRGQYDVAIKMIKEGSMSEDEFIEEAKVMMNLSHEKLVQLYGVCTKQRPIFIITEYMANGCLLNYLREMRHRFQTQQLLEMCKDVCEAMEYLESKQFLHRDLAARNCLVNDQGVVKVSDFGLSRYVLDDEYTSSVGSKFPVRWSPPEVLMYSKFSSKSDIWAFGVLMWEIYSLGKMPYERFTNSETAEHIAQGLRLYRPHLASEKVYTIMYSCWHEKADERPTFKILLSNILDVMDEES
EGFR, sequence (P00533 25-1210): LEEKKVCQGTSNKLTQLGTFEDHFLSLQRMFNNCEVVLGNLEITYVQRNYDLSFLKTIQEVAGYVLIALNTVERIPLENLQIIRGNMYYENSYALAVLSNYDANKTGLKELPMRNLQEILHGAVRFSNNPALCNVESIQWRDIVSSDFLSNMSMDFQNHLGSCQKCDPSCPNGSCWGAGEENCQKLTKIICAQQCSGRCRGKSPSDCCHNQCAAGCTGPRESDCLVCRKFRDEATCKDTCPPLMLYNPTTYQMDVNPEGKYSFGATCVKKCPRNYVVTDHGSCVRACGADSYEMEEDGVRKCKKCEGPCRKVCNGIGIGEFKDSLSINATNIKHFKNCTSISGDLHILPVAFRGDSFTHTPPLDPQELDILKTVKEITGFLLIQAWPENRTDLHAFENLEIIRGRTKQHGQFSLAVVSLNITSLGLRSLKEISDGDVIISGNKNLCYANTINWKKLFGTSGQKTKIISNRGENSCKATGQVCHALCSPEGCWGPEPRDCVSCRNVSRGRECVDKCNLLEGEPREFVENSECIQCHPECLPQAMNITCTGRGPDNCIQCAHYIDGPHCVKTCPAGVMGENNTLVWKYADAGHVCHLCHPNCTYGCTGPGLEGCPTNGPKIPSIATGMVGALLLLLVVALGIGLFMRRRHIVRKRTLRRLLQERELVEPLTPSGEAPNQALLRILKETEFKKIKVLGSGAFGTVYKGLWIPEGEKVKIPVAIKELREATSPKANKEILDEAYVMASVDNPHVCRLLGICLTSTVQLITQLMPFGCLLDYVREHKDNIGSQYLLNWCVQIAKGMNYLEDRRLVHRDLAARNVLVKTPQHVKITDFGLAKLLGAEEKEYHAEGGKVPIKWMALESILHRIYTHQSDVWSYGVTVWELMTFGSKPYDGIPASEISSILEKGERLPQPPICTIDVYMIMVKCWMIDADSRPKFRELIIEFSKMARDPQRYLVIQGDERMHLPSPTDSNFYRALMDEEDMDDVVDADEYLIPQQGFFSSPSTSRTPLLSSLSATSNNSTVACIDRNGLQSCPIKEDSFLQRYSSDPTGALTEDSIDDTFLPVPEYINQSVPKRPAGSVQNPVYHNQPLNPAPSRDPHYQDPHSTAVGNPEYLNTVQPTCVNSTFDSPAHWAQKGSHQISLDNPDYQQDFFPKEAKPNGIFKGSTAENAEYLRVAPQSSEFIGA
Lck, sequence (P06239 whole entry, species assumed): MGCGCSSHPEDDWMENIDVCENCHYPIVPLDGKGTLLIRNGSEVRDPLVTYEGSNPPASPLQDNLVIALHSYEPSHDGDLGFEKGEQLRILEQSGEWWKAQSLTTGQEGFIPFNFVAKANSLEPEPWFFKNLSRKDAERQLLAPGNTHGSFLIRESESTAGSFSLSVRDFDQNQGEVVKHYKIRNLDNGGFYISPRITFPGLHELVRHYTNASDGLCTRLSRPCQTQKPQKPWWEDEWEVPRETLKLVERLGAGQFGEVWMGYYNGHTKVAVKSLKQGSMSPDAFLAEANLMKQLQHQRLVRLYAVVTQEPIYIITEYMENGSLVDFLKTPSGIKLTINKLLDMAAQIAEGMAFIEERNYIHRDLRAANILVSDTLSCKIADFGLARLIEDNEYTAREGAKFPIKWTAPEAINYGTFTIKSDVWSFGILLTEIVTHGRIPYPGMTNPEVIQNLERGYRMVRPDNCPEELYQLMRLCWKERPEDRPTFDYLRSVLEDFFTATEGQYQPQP

For `COCC1(C(=O)N2CCC[C@@H](Nc3n[nH]c4nccc(Oc5ccc(C(=O)Nc6cc(C)ccn6)cc5)c34)C2)CCC1` [compound 99, 4-[(3-{[(3R)-1-[1-(methoxymethyl)cyclobutanecarbonyl]piperidin-3-yl]amino}-1H-pyrazolo[3,4-b]pyridin-4-yl)oxy]-N-(4-methylpyridin-2-yl)benzamide], the IC50 against EGFR is more than 10000 nM; on JAK3, more than 10000 nM; at Btk, less than 100 nM; on Lck, 100 to 1000 nM.

A word on the IC50: it is the point on the concentration scale where inhibition reaches its midpoint.

For the origin of these results see US9580416B2, “Inhibitors of Bruton's tyrosine kinase” (PHARMACYCLICS LLC, priority 2014, dated 2017).
